Test systems include RXF 393; NCI/ADR-RES; HCT-116; CCRF-CEM; HOP-62; HCC 2998; OVCAR-3; MDA-MB-231; SK-MEL-5; UACC-257; HCT-15; OVCAR-5; T47D; IGROV-1; CAKI-1; NCI-H522; Malme-3M; BT-549; DU-145; OVCAR-4.
What all share (experiment): inhibition of tumour cell growth, NCI panel, 48 h

SMILES strings stand for the structures.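 Each compound was tested at five concentrations against cells in 96-well plates for 48 hours. GI50 marks 50% less growth.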 Calls of active or inactive are those of the source. No stated cut-off is given here; in the data, active = GI50 up to about 1.1 µM and inactive = higher.

For `Cc1ccccc1C(=N)c1ccccc1Cc1cccc2ccccc12`, the GI50 in the assay on RXF 393 is 5.93 µM (inactive); in the assay on NCI/ADR-RES it was 25.7 µM (inactive); in the assay with HCT-116, 11.9 µM (inactive); in the assay on CCRF-CEM, 15.4 µM (inactive); with HOP-62, 19 µM (inactive); in the assay with HCC 2998, 17.5 µM (inactive). The GI50 in the assay with OVCAR-3 was 13.1 µM (inactive); in the assay with MDA-MB-231, 36.4 µM (inactive); in the assay on SK-MEL-5, 17.9 µM (inactive); in the assay on UACC-257, 25.6 µM (inactive); in the assay on HCT-15, 18.7 µM; with OVCAR-5, 37.5 µM (inactive). The GI50 in the assay with T47D is 14.1 µM (inactive); in the assay on IGROV-1 it was 28.9 µM (inactive); in the assay with CAKI-1 it was 31 µM (inactive); in the assay with NCI-H522, 13.1 µM (inactive); with Malme-3M, 11.5 µM (inactive); with BT-549, 33.2 µM (inactive). The values for the GI50 with DU-145 and in the assay on OVCAR-4 were 21.8 µM (inactive) and 28.4 µM (inactive), respectively.

In the case of `CNC1NC(=O)c2ccccc2N1Cc1ccc(F)cc1` (stereo not given), the GI50 with RXF 393, in the assay on NCI/ADR-RES, in the assay on HCT-116, in the assay with CCRF-CEM, with HOP-62 and in the assay on HCC 2998 was > 100 µM (inactive) throughout. Also, the GI50 was > 100 µM (inactive) in the assay on OVCAR-3; > 100 µM (inactive) in the assay on MDA-MB-231; > 100 µM (inactive) in the assay on SK-MEL-5; > 100 µM (inactive) in the assay with UACC-257; more than 100 µM in the assay on HCT-15; > 100 µM (inactive) in the assay with OVCAR-5. Moreover, the GI50 with T47D, with IGROV-1, with CAKI-1, in the assay with NCI-H522, in the assay with Malme-3M and in the assay with BT-549 was > 100 µM (inactive) throughout. The GI50 in the assay with DU-145 and in the assay with OVCAR-4 was > 100 µM (inactive) throughout.

With `CCOC(=O)C(C)c1nc2cc(F)c(N3CCOCC3)cc2[nH]c1=O` (stereo not given), the GI50 with RXF 393, with NCI/ADR-RES, in the assay with HCT-116, with CCRF-CEM, in the assay with HOP-62 and in the assay with HCC 2998 was > 100 µM (inactive) each time. The GI50 is > 100 µM (inactive) in the assay on OVCAR-3; > 100 µM (inactive) in the assay with MDA-MB-231; 54.1 µM (inactive) with SK-MEL-5; > 100 µM (inactive) in the assay with UACC-257; more than 100 µM with HCT-15; > 100 µM (inactive) in the assay on OVCAR-5. Also, the GI50 in the assay with T47D is 51.9 µM (inactive); in the assay with IGROV-1 it was > 100 µM (inactive); with CAKI-1, > 100 µM (inactive); in the assay on NCI-H522, > 100 µM (inactive); in the assay with Malme-3M it was > 100 µM (inactive); in the assay with BT-549, > 100 µM (inactive). The GI50 with DU-145 and in the assay on OVCAR-4 was > 100 µM (inactive) each time.

For the compound `C=C1CN(Cc2ccccc2)[C@@H]2CCCCC[C@H](C#N)[C@H]12`, the GI50 in the assay with RXF 393 was > 60.8 µM (inactive); with NCI/ADR-RES, > 77.4 µM (inactive); in the assay with HCT-116 it was > 72.4 µM (inactive); with CCRF-CEM, 24.9 µM (inactive); in the assay on HOP-62, > 69.2 µM (inactive); in the assay with HCC 2998 it was > 100 µM (inactive). Also, the GI50 with OVCAR-3 is > 93.1 µM (inactive); in the assay on MDA-MB-231 it was > 100 µM (inactive); with SK-MEL-5, > 100 µM (inactive); in the assay with UACC-257 it was > 100 µM (inactive); with HCT-15 it was more than 100 µM; with OVCAR-5 it was > 100 µM (inactive). The GI50 in the assay with T47D was > 100 µM (inactive); with IGROV-1, > 100 µM (inactive); with CAKI-1, > 100 µM (inactive); in the assay on NCI-H522 it was 65.8 µM (inactive); in the assay with Malme-3M it was > 100 µM (inactive); in the assay with BT-549, > 100 µM (inactive). For the same compound, the GI50 in the assay on DU-145 and with OVCAR-4 was > 100 µM (inactive) each time.

For the compound `CN(C)Cc1cc(O)c(O)c(CN(C)C)c1`, the GI50 in the assay with RXF 393 was 50.4 µM (inactive); in the assay on NCI/ADR-RES, 19.3 µM (inactive); in the assay on HCT-116 it was 41.3 µM (inactive); in the assay on CCRF-CEM it was 20.2 µM (inactive); in the assay with HOP-62 it was 37.2 µM (inactive); with HCC 2998 it was 29 µM (inactive). Further, the GI50 is 36.7 µM (inactive) with OVCAR-3; > 100 µM (inactive) in the assay with MDA-MB-231; 29.4 µM (inactive) with SK-MEL-5; 17.3 µM (inactive) with UACC-257; 24.2 µM with HCT-15; 32.4 µM (inactive) in the assay with OVCAR-5. The GI50 in the assay with T47D is 49.9 µM (inactive); in the assay on IGROV-1 it was 46.3 µM (inactive); in the assay on CAKI-1, 34.4 µM (inactive); in the assay on NCI-H522, 30.3 µM (inactive); in the assay with Malme-3M it was 31.3 µM (inactive); with BT-549, 54 µM (inactive). The values for the GI50 in the assay on DU-145 and with OVCAR-4 were 35.9 µM (inactive) and 42.5 µM (inactive), respectively.

The record behind these values is ChEMBL document CHEMBL1201862, “PubChem BioAssay data set” (2004).
